This passage reports IC50 results from ChEMBL document CHEMBL3639113, “TRPA1 antagonists” (2015).

This experiment concerns the target Transient receptor potential cation channel subfamily A member 1 (Homo sapiens, UniProt O75762). The experiment can be described thus: FLIPR Calcium Assay: Ca2+ influx was measured using a FLIPR calcium assay kit (R8033; Molecular Devices, Sunnyvale, Calif.). The Ca2+ indicator dye was dissolved in Hanks' balanced salt solution supplemented with 20 mM HEPES buffer (HBSS/HEPES) according to the manufacturer instructions. Prior to start of the assay, the medium was removed by aspiration, and cells were loaded with 100 μL Ca2+ dye for 2 to 3 hours at room temperature. […] (4×) solutions of the test compounds were prepared in HBSS/HEPES, and 50 μL were added to the cells at a delivery rate of 10 μL/sec. Changes in fluorescence were measured over time in a fluorometric imaging plate reader (FLIPR, Molecular Devices). Two additions were made over the course of an experimental run. For agonist experiments, assay buffer was added at the 10 s time point, followed by addition of agonist at the 3 minute 10 sec time point.

As usually defined, the IC50 is the concentration that gives 50% inhibition.

Molecules are shown by their SMILES.

Transient receptor potential cation channel subfamily A member 1, sequence (O75762 whole entry): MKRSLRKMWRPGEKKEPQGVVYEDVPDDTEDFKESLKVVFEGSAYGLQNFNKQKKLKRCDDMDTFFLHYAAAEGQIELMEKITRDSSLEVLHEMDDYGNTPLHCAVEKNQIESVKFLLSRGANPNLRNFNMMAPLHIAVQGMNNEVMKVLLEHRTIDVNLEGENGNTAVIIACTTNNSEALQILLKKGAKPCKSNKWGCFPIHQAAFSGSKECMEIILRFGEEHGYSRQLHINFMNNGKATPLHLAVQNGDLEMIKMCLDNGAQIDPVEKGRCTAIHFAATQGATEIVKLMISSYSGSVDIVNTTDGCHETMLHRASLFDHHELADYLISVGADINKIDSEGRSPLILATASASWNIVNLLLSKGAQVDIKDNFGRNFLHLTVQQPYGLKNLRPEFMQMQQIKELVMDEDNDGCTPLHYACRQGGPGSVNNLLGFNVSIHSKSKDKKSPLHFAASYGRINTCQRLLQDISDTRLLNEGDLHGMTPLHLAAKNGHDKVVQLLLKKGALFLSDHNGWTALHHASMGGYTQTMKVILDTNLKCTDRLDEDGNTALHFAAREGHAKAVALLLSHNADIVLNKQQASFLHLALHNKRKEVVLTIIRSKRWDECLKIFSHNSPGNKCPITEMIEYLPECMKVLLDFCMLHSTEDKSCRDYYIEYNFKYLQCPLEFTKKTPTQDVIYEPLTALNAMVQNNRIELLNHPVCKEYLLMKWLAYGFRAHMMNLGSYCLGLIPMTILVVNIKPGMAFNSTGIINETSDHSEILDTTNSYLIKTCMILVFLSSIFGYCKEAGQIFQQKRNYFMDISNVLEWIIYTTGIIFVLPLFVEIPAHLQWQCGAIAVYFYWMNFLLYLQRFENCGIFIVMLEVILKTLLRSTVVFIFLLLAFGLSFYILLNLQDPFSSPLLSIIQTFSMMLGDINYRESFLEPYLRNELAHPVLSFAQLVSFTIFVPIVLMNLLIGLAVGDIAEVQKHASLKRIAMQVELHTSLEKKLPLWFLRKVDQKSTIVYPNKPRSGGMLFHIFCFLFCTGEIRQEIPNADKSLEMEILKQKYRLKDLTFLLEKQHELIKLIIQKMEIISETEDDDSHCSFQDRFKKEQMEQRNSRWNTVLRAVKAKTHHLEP

As to `CCC(=N\OC)/C(C)=C/c1ccc(F)cc1`, the IC50 worked out at 8.3 µM.
Regarding `CCC(=N\O)/C(C)=C/c1ccc(F)c(C#N)c1`, the IC50 is over 100 µM.
